{"source": "patent US4000262A", "about": "“5-Epi-amino and 5-epi-azido-4,6-di-O-(aminoglycosyl)-2,5-dideoxystreptamines 1-N-alkyl-5-epi-amino and 1-N-alkyl-5-epi-azido-4,6-di-O-(aminoglycosyl)-2,5-dideoxystreptamines” (priority 1975, dated 1976)", "key": {"[1]": {"system": "gram positive bacteria and gram negative bacteria", "test": "antibacterial activity (general statements, standard dilution tests)", "format": "cell-based", "conditions": "gram negative organisms resistant to the 5-hydroxy precursors"}, "Streptococcus pyogenes C": {"system": "Streptococcus pyogenes C", "test": "in vitro minimal inhibitory concentration, standard tube dilution method", "format": "cell-based", "description": "In Table 1, set forth below is shown the in vitro minimal inhibitory concentration (MIC) of gentamicin C2a against representative gram-positive and gram-negative bacteria. The results are derived using the standard tube dilution method in Mueller-Hinton broth.\nIn Table 2, set forth below is shown the in vitro minimal inhibitory concentration (MIC) of gentamicin C2b against representative gram-positive and gram-negative bacteria. The results are derived using the standard tube dilution method in Mueller-Hinton broth."}, "[2]": {"test": "acute intravenous toxicity", "conditions": "mouse, in vivo, male CF-1 mice weighing 20 grams each"}, "[3]": {"system": "gram-positive and gram-negative bacteria", "test": "in vitro antibacterial spectrum / activity compared with gentamicin C components", "format": "cell-based", "conditions": "as the free base"}}, "note": "Read-outs that look alike come from different tables or passages of the source."}
{"smiles": "CNC1C(O)C(OC2C(N)CC(N)C(OC3OC(CN)CCC3N)C2N)OCC1(C)O", "note": "(stereo not drawn) [5-epi-amino-5-deoxygentamicin C1a]", "values": [{"measurement": "cidal activity", "setting": "[1]", "result": "cidal against certain gram negative organisms which are resistant to the 5-hydroxy precursors"}]}
{"smiles": "CNC[C@@H]1CC[C@@H](N)[C@@H](O[C@H]2[C@H](O)[C@@H](O[C@H]3OC[C@](C)(O)[C@H](NC)[C@H]3O)[C@H](N)C[C@@H]2N)O1", "note": "[gentamicin C2b]", "values": [{"measurement": "MIC", "setting": "Streptococcus pyogenes C; Mueller-Hinton broth, read-out: MIC", "result": 3, "unit": "µg/mL"}]}
{"smiles": "CN[C@@H]1[C@@H](O)[C@@H](O[C@@H]2[C@@H](O)[C@H](O[C@H]3O[C@H]([C@H](C)N)CC[C@H]3N)[C@@H](N)C[C@H]2N)OC[C@]1(C)O", "note": "[gentamicin C2a]", "values": [{"measurement": "MIC", "setting": "Streptococcus pyogenes C", "result": 7.5, "unit": "µg/mL"}, {"measurement": "LD50", "setting": "[2]", "result": 110, "unit": "mg/kg"}, {"measurement": "activity relative to the gentamicin \"C\" complex", "setting": "[3]", "result": "about 74%"}]}
